Values of other authors in patent US20170239173A1, “TRANSDERMAL ABSORPTION ENHANCER AND TRANSDERMAL ABSORPTION ENHANCEMENT AID” (ASAHI KASEI KABUSHIKI KAISHA, priority 2014, published 2017).
Values joined by “and” are separate entries in the source; they are usually repeats but may differ in a detail not shown here. Equal values may be shown once.

Conditions: partition coefficient between water and 1-octanol; cited from earlier work

Structure (SMILES) | Log P
Oc1ccc(O)cc1 [hydroquinone] | −0.6
CCOC(=O)[C@H](CCc1ccccc1)N[C@@H](C)C(=O)N1C(=O)N(C)C[C@H]1C(=O)O [imidapril] | −0.7
CC(C)NCC(O)c1ccc(O)c(O)c1 (stereo not drawn) [isoprenaline] | −0.6
Cc1c(C(C)C)c(=O)n(-c2ccccc2)n1C [isopropylantipyrine] | 1.7
O[C@@H]1CO[C@H]2[C@@H]1OC[C@@H]2O [isosorbide] | −1.4
O=c1cc(CO)occ1O [kojic acid] | −0.9
O=C(C[S+]([O-])Cc1ccco1)NC/C=C\COc1cc(CN2CCCCC2)ccn1 (stereo not drawn) [lafutidine] | 1.4
Cc1c(OCC(F)(F)F)ccnc1C[S+]([O-])c1nc2ccccc2[nH]1 (stereo not drawn) [lansoprazole] | 2.8
Cc1oncc1C(=O)Nc1ccc(C(F)(F)F)cc1 [leflunomide] | 2.6
NCCCC[C@H](N[C@@H](CCc1ccccc1)C(=O)O)C(=O)N1CCC[C@H]1C(=O)O [lisinopril] | −2.9 and −3.0
Nc1cc(N2CCCCC2)nc(N)[n+]1[O-] [loniten] | 1.2
CN(CC1(C)CCCO1)S(=O)(=O)c1ccc(Cl)c(S(N)(=O)=O)c1 (stereo not drawn) [mefruside] | 0.9
C[C@H]1C[C@@H]2[C@H]([C@@H](O)C[C@@]3(C)[C@H]2CC[C@]3(O)C(=O)CO)[C@@]2(C)C=CC(=O)C=C12 [methylprednisolone] | 1.9
Cc1cc2c(cc1S(N)(=O)=O)S(=O)(=O)CCC2 [meticrane] | 0.5
Cc1[nH]c(=O)c(C#N)cc1-c1ccncc1 [milrinone] | 0
Nc1cc(N2CCCCC2)nc(N)[n+]1[O-] [minoxidil] | 1.2
O=C(O)c1cccnc1 [nicotinic acid] | 0.4
Cn1c(NCCN(CCO)CCCc2ccc([N+](=O)[O-])cc2)cc(=O)n(C)c1=O [nifekalant] | 1.1

Structure (SMILES) | Log P
CNC(=C[N+](=O)[O-])NCCSCc1csc(CN(C)C)n1 [nizatidine] | 1.6
CC(C)(CO)[C@@H](O)C(=O)NCCC(=O)O [pantothenic acid] | −1.1
CCC[C@H](N[C@@H](C)C(=O)N1[C@H](C(=O)O)C[C@@H]2CCCC[C@@H]21)C(=O)OCC [perindopril] | 0.9
Cc1ccc(N(CC2=NCCN2)c2cccc(O)c2)cc1 [phentolamine] | 2.6
Cc1cccc(C)c1NC(=O)CC12CCCN1CCC2 [pilsicainide] | 2.7
CN1CCN(CC(=O)N2c3ccccc3C(=O)Nc3cccnc32)CC1 [pirenzepine] | 0.1
CCN(CC)CCNC(=O)c1ccc(N)cc1 [procainamide] | 0.9
CCOC(=O)[C@H](CCc1ccccc1)N[C@@H](C)C(=O)N1Cc2ccccc2C[C@H]1C(=O)O [quinapril] | 1.2
OC[C@H]1O[C@H](OC[C@H]2O[C@H](O[C@]3(CO)O[C@H](CO)[C@@H](O)[C@@H]3O)[C@H](O)[C@@H](O)[C@@H]2O)[C@H](O)[C@@H](O)[C@H]1O [raffinose] | −5.8
O=C(NC(Cc1cc(=O)[nH]c2ccccc12)C(=O)O)c1ccc(Cl)cc1 (stereo not drawn) [rebamipide] | 2.4
Oc1cccc(O)c1 [resorcin] | 0.8
O=P(O)(O)C(O)(Cc1cccnc1)P(=O)(O)O [risedronate] | −3.5
CCCCc1ccc(O)cc1O [rucinol] | 2.4
N[C@@H](CO)C(=O)O [serine] | −3.1
CC(C)NCC(O)c1ccc(NS(C)(=O)=O)cc1 (stereo not drawn) [sotalol] | 0.2
C=CC[C@@H]1/C=C(\C)C[C@H](C)C[C@H](OC)[C@H]2O[C@@](O)(C(=O)C(=O)N3CCCC[C@H]3C(=O)O[C@H](/C(C)=C/[C@@H]3CC[C@@H](O)[C@H](OC)C3)[C@H](C)[C@@H](O)CC1=O)[C@H](C)C[C@@H]2OC [tacrolimus] | 2.7
CCOC(=O)[C@H](CCc1ccccc1)N[C@H]1CS[C@H](c2cccs2)CN(CC(=O)O)C1=O [temocapril] | 1
COc1cc2nc(N3CCN(C(=O)C4CCCO4)CC3)nc(N)c2cc1OC (stereo not drawn) [terazosin] | 1.4
